Assay results: patent US10808007B2, “Desacetoxytubulysin H and analogs thereof” (WILLIAM MARSH RICE UNIVERSITY, priority 2015, dated 2020)
Like-named read-outs stand apart in the source and are kept apart here.

Assays:
Assay type in all cases: cell-based
[1] = tested on: leukemia cancer cell lines; assay: NCI-60 cytotoxicity, leukemia; conditions: Homo sapiens
Method: (§1) A number of the synthesized compounds (i.e. Tb1-Tb23) were evaluated for their activity against a variety of cancer cell lines, namely the NCI-60 human cancer cell line panel representing leukemia, melanoma, lung, colon, brain, ovary, breast, prostate and kidney types of cancer through the In Vitro Cell Line Screening Project (IVCLSP) of the National Cancer Institute (NCI), and a summary of the results is shown in Table 1. […] As there was interest in the activity in certain other cell lines, these and the remaining compounds (Tb1-Tb41, PTb-D42 and PTb-D43) were subjected to further testing against MES SA (uterine sarcoma cells), MES SA DX (multidrug resistant uterine sarcoma cells), and HEK 293T (human embryonic kidney cells). […] Tubulysins are known to be substrates for Pgp pumps (Xiangming, et al., 2013; Kaur, et al., 2006; Szakacs, et al., 2006) as supported by the observed low activities of all tubulysins tested except Tb28, Tb32 and Tb33.

[2] = tested on: non-small cell lung cancer cell lines; assay: NCI-60 cytotoxicity, non-small cell lung cancer; conditions: Homo sapiens
Method: as §1

[3] = tested on: colon cancer cell lines; assay: NCI-60 cytotoxicity, colon cancer; conditions: Homo sapiens
Method: as §1

[4] = tested on: CNS cancer cell lines; assay: NCI-60 cytotoxicity, CNS cancer; conditions: Homo sapiens
Method: as §1

[5] = tested on: melanoma cell lines; assay: NCI-60 cytotoxicity, melanoma; conditions: Homo sapiens
Method: as §1

[6] = tested on: ovarian cancer cell lines; assay: NCI-60 cytotoxicity, ovarian cancer; conditions: Homo sapiens
Method: as §1

[7] = tested on: renal cancer cell lines; assay: NCI-60 cytotoxicity, renal cancer; conditions: Homo sapiens
Method: as §1

[8] = tested on: prostate cancer cell lines; assay: NCI-60 cytotoxicity, prostate cancer; conditions: Homo sapiens
Method: as §1

[9] = tested on: breast cancer cell lines; assay: NCI-60 cytotoxicity, breast cancer; conditions: Homo sapiens
Method: as §1

[10] = tested on: MES SA (uterine sarcoma cells); assay: Cytotoxic assay (CellTiter-Glo, 72 h), MES SA; conditions: Homo sapiens, MES-SA, read-out: IC50 MES SA
[11] = tested on: MES SA DX (multidrug resistant uterine sarcoma cells); assay: Cytotoxic assay (CellTiter-Glo, 72 h), MES SA DX; conditions: Homo sapiens
[12] = tested on: HEK 293T (human embryonic kidney cells); assay: Cytotoxic assay (CellTiter-Glo, 72 h), HEK 293T; conditions: Homo sapiens, HEK-293T, read-out: IC50 HEK 293T

| Compound | GI50 ([1]; NCI-60, selected value) [nM] | GI50 ([2]; NCI-60, selected value) [nM] | GI50 ([3]; NCI-60, selected value) [nM] | GI50 ([4]; NCI-60, selected value) [nM] | GI50 ([5]; NCI-60, selected value) [nM] | GI50 ([6]; NCI-60, selected value) [nM] | GI50 ([7]; NCI-60, selected value) [nM] | GI50 ([8]; NCI-60, selected value) [nM] | GI50 ([9]; NCI-60, selected value) [nM] | IC50 ([10]; 72 h) [nM] | IC50 [11] [nM] | IC50 ([12]; 72 h) [nM] | GI50 ([1]; NCI-60) [nM] | GI50 ([2]; NCI-60) [nM] | GI50 ([3]; NCI-60) [nM] | GI50 ([4]; NCI-60) [nM] | GI50 ([5]; NCI-60) [nM] | GI50 ([6]; NCI-60) [nM] | GI50 ([7]; NCI-60) [nM] | GI50 ([8]; NCI-60) [nM] | also measured |
| --- | --- | --- | --- | --- | --- | --- | --- | --- | --- | --- | --- | --- | --- | --- | --- | --- | --- | --- | --- | --- | --- |
| CC[C@@H](C)[C@H](NC(=O)CN(C)C)C(=O)N(C)[C@H](C[C@@H](OC(C)=O)c1nc(C(=O)NC23CC(C(=O)OC)(C2)C3)cs1)C(C)C [Tb16] | 15.1 | 85 | 98.1 | 127 | 46.1 | 99.1 | 186 | 303 | 123 | > 50 | > 50 | > 50 | – | – | – | – | – | – | – | – | – |
| CCC(C)[C@H](NC(=O)CN(C)C)C(=O)N(C)[C@H](C[C@@H](OC(C)=O)c1nc(C(=O)NC23C4C5C2C2C3C4C52C(=O)OC)cs1)C(C)C (stereo in doubt) [Tb13, Methyl 4-(2-((6S,9R,11R)-6-((S)-sec-butyl)-9-isopropyl-2,8-dimethyl-4,7,13-trioxo-12-oxa-2,5,8-triaza-tetradecan-11-yl)thiazole-4-carboxamido)cubane-1-carboxylate] | 13.8 | 142 | 122 | 117 | 40.2 | 111 | 167 | 167 | 136 | > 50 | > 50 | > 50 | – | – | – | – | – | – | – | – | – |
| CC[C@H](C)[C@H](NC(=O)N[C@@H](C)c1ccccc1)C(=O)N(C)[C@H](C[C@@H](OC(C)=O)c1nc(C(=O)N[C@@H](Cc2ccccc2)C[C@H](C)C(=O)OC)cs1)C(C)C [Tb4, (2S,4R)-Methyl 4-(2-((2S,6S,9R,1 IR)-6-((S)-sec-butyl)-9-isopropyl-8-methyl-4,7,13-trioxo-2-phenyl-12-oxa-3,5,8-tri-azatetradecan-11-yl)thiazole-4-carboxamido)-2-methyl-5-phenylpentanoate] | > 1000 | > 1000 | > 1000 | > 1000 | > 1000 | > 1000 | > 1000 | > 1000 | > 1000 | > 50 | > 50 | > 50 | – | – | – | – | – | – | – | – | – |
| CCC(C)[C@H](NC(=O)[C@H]1CCCCN1C)C(=O)N(C)[C@H](C[C@@H](OC(C)=O)c1nc(C(=O)NC23CC(C(=O)OC)(C2)C3)cs1)C(C)C (stereo in doubt) [Tb14, Methyl 3-(2-((1R,3R)-1-acetoxy-3-((2S,3S)—N,3-dimethyl-2-((R)-1-methylpiperidine-2-carboxamido)-pentanamido)-4-methylpentyl)thiazole-4-carboxamido)bicyclo[1.1.1]pentane-1-carboxylate] | – | – | 0.433 | 0.382 | 0.137 | – | – | 0.449 | – | 0.35 | > 50 | 0.11 | 0.064 | 0.156 | 0.433 | 0.382 | 0.137 | 0.256 | 0.364 | 0.449 | GI50 ([9]; NCI-60): 0.267 nM; IC50 [10]: 0.35 nM; IC50 [12]: 0.11 nM |
| COC(=O)[C@@H](C)C[C@H](Cc1ccccc1)NC(=O)c1csc([C@@H](C[C@H](C(C)C)N(C)C(=O)[C@@H](NC(=O)[C@H]2CCCCN2C)C2CC2)OC(C)=O)n1 [Tb20, Methyl (2S,4R)-4-(2-((1R,3R)-1-acetoxy-3-((S)-2-cyclopropyl-N-methyl-2-((R)-1-methylpiperidine-2-carboxamido)acetamido)-4-methylpentyl)thiazole-4-carboxamido)-2-methyl-5-phenylpentanoate] | – | – | 0.263 | 0.345 | 0.035 | – | – | 0.211 | – | 0.046 | < 200 | 0.047 | 0.098 | 0.247 | 0.263 | 0.345 | 0.035 | 0.049 | 0.27 | 0.211 | GI50 ([9]; NCI-60): 0.044 nM; IC50 [10]: 0.046 nM; IC50 [12]: 0.047 nM |
| CCC(C)[C@H](NC(=O)[C@H]1CCCCN1C)C(=O)N(C)[C@H](C[C@@H](OC(C)=O)c1nc(C(=O)NC23C4C5C2C2C3C4C52C(=O)OC)cs1)C(C)C (stereo in doubt) [Tb11, Methyl 4-(2-((1R,3R)-1-acetoxy-3-((2S,3S)—N,3-dimethyl-2-((R)-1-methylpiperidine-2-carboxamido)-pentanamido)-4-methylpentyl)thiazole-4-carboxamido)cubane-1-carboxylate] | – | – | 1.14 | 1.15 | 0.349 | – | – | 1.13 | – | 0.84 | > 50 | 0.26 | 0.159 | 0.331 | 1.14 | 1.15 | 0.349 | 0.489 | 0.768 | 1.13 | GI50 ([9]; NCI-60): 0.428 nM |
| COC(=O)[C@@H](C)C[C@H](Cc1ccccc1)NC(=O)c1csc([C@@H](C[C@H](C(C)C)N(C)C(=O)[C@@H](NC(=O)CN(C)C)C2CC2)OC(C)=O)n1 [Tb21, Methyl (2S,4R)-4-(2-((6S,9R,11R)-6-cyclopropyl-9-isopropyl-2,8-dimethyl-4,7,13-trioxo-12-oxa-2,5,8-triazatetradecan-11-yl)thiazole-4-carboxamido)-2-methyl-5-phenylpentanoate] | 1.65 | 6.62 | 23.9 | 24.1 | 2.23 | 5.79 | 23.2 | 34.6 | 4.04 | 16.8 | > 50 | > 10 | – | – | – | – | – | – | – | – | – |
| CC[C@H](C)[C@H](NC(=O)C12C3C4C1C1C2C3C41NC(C)=O)C(=O)N(C)[C@H](C[C@@H](OC(C)=O)c1nc(C(=O)N[C@@H](Cc2ccccc2)C[C@H](C)C(=O)OC)cs1)C(C)C (stereo partly drawn) [Tb9, Methyl(2S,4R)-4-(2-((R,3R)-3-((2S,3S)-2-(4-acetamidocubane-1-carboxamido)-N,3-dimethylpentan amido)-1-acetoxy-4-methylpentyl)thiazole-4-carboxamido)-2-methyl-5-phenylpentanoate] | 24.2 | 83.6 | 331 | 246 | 46.6 | 61 | 238 | 459 | 53.2 | > 50 | > 50 | > 50 | – | – | – | – | – | – | – | – | – |
| CC[C@H](C)[C@H](NC(=O)[C@H]1CCCCN1C)C(=O)N(C)[C@H](C[C@@H](OC(C)=O)c1nc(C(=O)N[C@@H](Cc2ccccc2)C[C@H](C)C(=O)OC)cs1)C(C)C [Tb2, Methyl (2S,4R)-4-(2-((1R,3R)-1-acetoxy-3-((2S,3S)—N,3-dimethyl-2-((R)-1-methylpiperidine-2-carbo-xamido)pentanamido)-4-methylpentyl)thiazole-4-carboxamido)-2-methyl-5-phenylpentanoate] | 0.078 | 0.28 | 0.158 | 0.219 | 0.03 | 0.042 | 0.218 | 0.162 | 0.043 | 0.2 | > 10 | 0.03 | – | – | – | – | – | – | – | – | IC50 [10]: 0.2 nM; IC50 [12]: 0.03 nM |
